{"source": "patent US7943600B2", "about": "“Antimicrobial combination therapy” (priority 2004, dated 2011)", "format_in_all_cases": "cell-based, E. coli", "key": {"CC104 mutY::cam": {"system": "CC104 mutY::cam", "assay": "Survival curves after cisplatin treatment", "details": "presence or absence of chloramphenicol in growth medium", "method": "(§1) MacConkey agar and LB broth were purchased from Difco. LB broth contained 10 g tryptone, 5 g yeast extract, and 10 g NaCl per 1 L. All antibiotics and cisplatin (cis-diammine-dichloro-platinum(II), or CDDP) were purchased from Sigma-Aldrich. Antibiotics were used at the following final concentrations: 15 μg/ml tetracycline (Tc), 100 μg/ml ampicillin, 50 μg/ml kanamycin, 100 μg/ml streptomycin, 30 μg/ml nalidixic acid and 20 μg/ml chloramphenicol. Cisplatin solutions were prepared by dissolution in phosphate buffered saline (PBS) at 37° C. for one hour with rotation, filtering the solution through a 0.2 μm Acrodisc filter, and determining the concentration by UV absorbance at A301 using a Beckmann DU-65 spectrophotometer. Appropriate doses of cisplatin were then prepared by dilution in PBS.\n(§2) Cells were grown overnight from single colonies in LB broth. The next morning, saturated overnight cultures were diluted 1:100 and grown for two hours to mid-log phase (cell density approximately 3×10^8 cells/ml). At this time, the cells were spun down, resuspended in M9 minimal salts, and treated with various concentrations of cisplatin at 37° C. for 1 hour. Exposure to cisplatin was stopped by dilution of the cells 1:100 in M9 salts. Appropriate serial dilutions were prepared for each dose and plated on LB plates or LB/Tet plates. Colonies were counted the next day after incubation at 37° C. Survival was calculated as a percentage of cells forming colonies in treated populations relative to untreated."}, "GM7330 fpg::amp": {"system": "GM7330 fpg::amp", "assay": "Survival curves after cisplatin treatment", "details": "presence or absence of ampicillin in growth medium", "method": "as §1, §2"}, "MG1655/pBR322": {"system": "MG1655/pBR322", "assay": "Survival curves after cisplatin treatment", "method": "(§3) Strains carrying the pBR322 plasmid were created using a standard transformation by electroporation protocol. Briefly, cells were grown to mid-log phase, spun down, and washed 3 times in ice-cold sterile water. Cells were then resuspended in the final volume of 100 μl of ice-cold sterile water, and 10 μg pBR322 (New England BioLabs) was added. The BTX electroporation system, ElectroCell Manipulator 600, was used to deliver the pulse. After the pulse, cells were immediately resuspended in 1 ml of LB broth. Appropriate dilutions of cells were prepared in M9 minimal salts, plated on LB-ampicillin plates, and allowed to form colonies overnight.\nas §1, §2"}, "AB1157/pBR322": {"system": "AB1157/pBR322", "assay": "Survival curves after cisplatin treatment", "details": "grown with tetracycline prior to cisplatin treatment", "method": "as §3, §1, §2"}, "CC104/pBR322": {"system": "CC104/pBR322", "assay": "Survival curves after cisplatin treatment", "details": "grown with tetracycline prior to cisplatin treatment", "method": "as §3, §1, §2"}, "MG1655/F′Tn10": {"system": "MG1655/F′Tn10", "assay": "Survival curves (colony formation) after cisplatin treatment", "method": "Strain GM4292 was constructed by mating exponentially growing XL1-Blue (Stratagene) with MG1655 (both at 1-2×10^8/ml at a 1:1 ratio) for 60 min and plating dilutions of the mixture on MacConkey agar-tetracycline plates. A red tetracycline-resistant, nalidixic acid-sensitive colony was selected, purified and designated GM4292. Strain GM4293 was constructed by introducing F′42 (F′lac^+) from AB 1874 into KM81 by conjugation as described above and selecting for Lac^+ Str^R colonies. A purified Lac^+ Str^R recombinant overnight culture was diluted and plated on MacConkey agar-kanamycin and following incubation overnight at 37° C., white colonies were selected. White colonies can arise either by gene conversion, where the lac^+ allele on the F′42 plasmid is converted to lacZ::Kan, or by loss of the F′lac^+. The white colonies were tested for their ability to transfer kanamycin-resistance at high frequency to MG1655, indicating retention of the F′ plasmid. One of these MG1655 recipients was designated GM4293.\nas §1\nas §2, with “At this time, the cells were spun down, resuspended in M9 minimal salts, and treated with various concentrations of cisplatin at 37° C. for 1 hour.” left out"}, "CC104 mutY::tet": {"system": "CC104 mutY::tet", "assay": "Survival curves after cisplatin treatment", "method": "as §1, §2"}, "GM7330 fpg::tet": {"system": "GM7330 fpg::tet", "assay": "Survival curves after cisplatin treatment", "method": "as §1, §2"}, "AB1157 mutS::tet": {"system": "AB1157 mutS::tet", "assay": "Survival curves after cisplatin treatment", "method": "as §1, §2"}, "[1]": {"details": "grown without tetracycline, treated with cisplatin alone"}, "[2]": {"details": "grown without tetracycline, treated with cisplatin in the presence of tetracycline"}, "[3]": {"details": "pre-treated and co-treated with tetracycline vs pre-treated only, cisplatin"}, "[4]": {"details": "tetracycline absent from growth medium"}}, "data": [{"smiles": "O=C(N[C@H](CO)[C@H](O)c1ccc([N+](=O)[O-])cc1)C(Cl)Cl", "note": "[chloramphenicol]", "values": [{"measurement": "effect of antibiotic in growth medium on survival upon cisplatin treatment", "setting": "CC104 mutY::cam", "value": "did not produce the same degree of sensitization to cisplatin"}]}, {"smiles": "CC1(C)S[C@@H]2[C@H](NC(=O)[C@H](N)c3ccccc3)C(=O)N2[C@H]1C(=O)O", "note": "[ampicillin]", "values": [{"measurement": "effect of antibiotic in growth medium on survival upon cisplatin treatment", "setting": "GM7330 fpg::amp", "value": "did not produce the same degree of sensitization to cisplatin"}]}, {"smiles": "N.N.[Cl][Pt][Cl]", "note": "[cisplatin, cis-diammine-dichloro-platinum(II)]", "values": [{"measurement": "sensitization to cisplatin", "setting": "MG1655/pBR322; grown with tetracycline prior to cisplatin treatment", "value": "did not produce similar sensitization to cisplatin"}, {"measurement": "sensitivity to cisplatin", "setting": "MG1655/pBR322; [1]", "value": "equally sensitive to cisplatin as MG1655 cells not carrying any tet genes"}, {"measurement": "survival", "setting": "MG1655/pBR322; [2]", "value": "their survival decreased"}, {"measurement": "additional decrease in survival", "setting": "MG1655/pBR322; [3]", "value": 100, "unit": "fold"}, {"measurement": "sensitization to cisplatin", "setting": "AB1157/pBR322", "value": "did not produce similar sensitization to cisplatin"}, {"measurement": "sensitization to cisplatin", "setting": "CC104/pBR322", "value": "did not produce similar sensitization to cisplatin"}, {"measurement": "sensitivity to cisplatin", "setting": "MG1655/F′Tn10; 4 hours, 10-fold lower cisplatin doses, co-treated with tetracycline only", "value": "more sensitive to cisplatin than wild-type"}, {"measurement": "survival", "setting": "MG1655/F′Tn10; 4 hours, 10-fold lower cisplatin doses, neither pre-treated nor co-treated with tetracycline", "value": "not different from survival of wild-type cells"}, {"measurement": "sensitivity to cisplatin", "setting": "MG1655/F′Tn10; 4 hours, 10-fold lower cisplatin doses, pre-treated with tetracycline and co-treated with cisplatin and tetracycline", "value": "the most sensitive to cisplatin treatment"}, {"measurement": "sensitivity to cisplatin", "setting": "MG1655/F′Tn10; 4 hours, 10-fold lower cisplatin doses, pre-treated with tetracycline only", "value": "more sensitive to cisplatin than wild-type"}, {"measurement": "sensitivity to cisplatin", "setting": "MG1655/F′Tn10; [1]", "value": "equally sensitive to cisplatin as MG1655 cells not carrying any tet genes"}, {"measurement": "survival", "setting": "MG1655/F′Tn10; [2]", "value": "their survival decreased"}, {"measurement": "survival upon exposure to cisplatin", "setting": "MG1655/F′Tn10; grown without tetracycline, cisplatin 1 hour", "value": "not different from that of MG1655 wild-type cells"}, {"measurement": "additional decrease in survival", "setting": "MG1655/F′Tn10; [3]", "value": 100, "unit": "fold"}, {"measurement": "survival upon subsequent treatment with cisplatin", "setting": "MG1655/F′Tn10; tetracycline 15 μg/ml in growth medium of overnight and log phase cultures, cisplatin 1 hour", "value": "dramatic decrease in survival"}, {"measurement": "killed more effectively than wild-type bacteria", "setting": "MG1655/F′Tn10; tetracycline-resistant bacteria grown in tetracycline, then cisplatin in the presence of tetracycline, vs wild-type or resistant bacteria not exposed to tetracycline", "value": "about 10^5 fold"}, {"measurement": "survival upon treatment with cisplatin", "setting": "CC104 mutY::tet; grown with tetracycline", "value": "dramatically decreased"}, {"measurement": "survival upon treatment with cisplatin", "setting": "CC104 mutY::tet; [4]", "value": "not different from respective wild-types"}, {"measurement": "survival upon treatment with cisplatin", "setting": "GM7330 fpg::tet; grown with tetracycline", "value": "dramatically decreased"}, {"measurement": "survival upon treatment with cisplatin", "setting": "GM7330 fpg::tet; [4]", "value": "not different from respective wild-types"}, {"measurement": "survival upon treatment with cisplatin", "setting": "AB1157 mutS::tet; grown with tetracycline", "value": "dramatically decreased"}, {"measurement": "survival upon treatment with cisplatin", "setting": "AB1157 mutS::tet; [4]", "value": "not different from respective wild-types"}]}]}
